Among the data in publication PMC3639963, “A New Class of Small Molecule Inhibitor of BMP Signaling” (PLoS ONE, 2013) are inhibition values, retold here.

Each structure is given as a SMILES string.

Common to all, as to assay: Nanosyn kinase profiling
What all share (type): biochemical
Details in all cases: read-out: Percentage inhibition; for inhibition at 0.1 µM: 0.1 µM inhibitor; for inhibition at 1 µM: 1 µM inhibitor

One assay addresses T1, AURKB (Homo sapiens, UniProt Q96GD4).
T1 construct: purchased Nanosyn (enzymatic panel); SGC in-house recombinant human kinases (DSF panel); Invitrogen (ALK1-6)
A digest of the protocol: (§1)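 Percent inhibition of each kinase was measured with the inhibitor at 0.1 µM and at 1 µM, as part of a 200-kinase human selectivity panel.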

The next assay addresses T2, FGFR2 (Homo sapiens, UniProt P21802).
T2 construct: purchased Nanosyn (enzymatic panel); SGC in-house recombinant human kinases (DSF panel); Invitrogen (ALK1-6)
A digest of the protocol: as §1

A further assay has as its target T3, JAK3 (Homo sapiens, UniProt P52333).
T3 construct: purchased Nanosyn (enzymatic panel); SGC in-house recombinant human kinases (DSF panel); Invitrogen (ALK1-6)
T3 sequence (P52333 1-1124): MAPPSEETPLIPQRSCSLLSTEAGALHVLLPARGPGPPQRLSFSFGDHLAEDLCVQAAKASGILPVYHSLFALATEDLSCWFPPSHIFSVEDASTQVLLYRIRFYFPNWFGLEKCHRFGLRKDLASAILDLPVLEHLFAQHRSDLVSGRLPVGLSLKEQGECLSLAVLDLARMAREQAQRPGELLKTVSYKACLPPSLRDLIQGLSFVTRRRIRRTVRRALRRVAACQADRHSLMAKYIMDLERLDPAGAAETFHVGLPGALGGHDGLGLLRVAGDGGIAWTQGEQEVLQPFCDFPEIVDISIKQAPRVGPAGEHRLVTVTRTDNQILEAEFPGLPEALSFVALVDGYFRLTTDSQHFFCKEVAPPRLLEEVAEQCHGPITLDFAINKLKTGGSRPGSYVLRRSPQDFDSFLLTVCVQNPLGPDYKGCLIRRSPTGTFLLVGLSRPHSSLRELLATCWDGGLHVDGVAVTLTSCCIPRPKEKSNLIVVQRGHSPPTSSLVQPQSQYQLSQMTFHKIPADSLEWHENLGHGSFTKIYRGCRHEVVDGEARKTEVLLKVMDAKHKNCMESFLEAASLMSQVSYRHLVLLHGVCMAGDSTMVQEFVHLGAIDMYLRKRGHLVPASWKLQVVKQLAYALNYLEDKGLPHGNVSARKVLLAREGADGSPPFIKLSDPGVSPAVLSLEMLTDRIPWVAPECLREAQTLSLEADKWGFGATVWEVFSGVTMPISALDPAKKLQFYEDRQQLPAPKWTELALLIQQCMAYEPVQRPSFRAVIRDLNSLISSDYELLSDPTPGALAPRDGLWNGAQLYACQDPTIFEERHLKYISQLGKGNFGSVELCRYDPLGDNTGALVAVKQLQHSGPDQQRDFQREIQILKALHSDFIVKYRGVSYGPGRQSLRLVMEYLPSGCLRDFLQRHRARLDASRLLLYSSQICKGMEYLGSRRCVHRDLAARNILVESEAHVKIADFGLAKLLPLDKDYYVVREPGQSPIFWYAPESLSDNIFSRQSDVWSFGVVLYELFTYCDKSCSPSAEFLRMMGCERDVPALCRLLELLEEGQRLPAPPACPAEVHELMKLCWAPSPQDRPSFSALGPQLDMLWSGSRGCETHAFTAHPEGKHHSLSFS
The method in brief: as §1

A further assay deals with T4, MSSK1 (Homo sapiens, UniProt Q9UPE1).
T4 construct: purchased Nanosyn (enzymatic panel); SGC in-house recombinant human kinases (DSF panel); Invitrogen (ALK1-6)
T4 sequence (Q9UPE1 whole entry): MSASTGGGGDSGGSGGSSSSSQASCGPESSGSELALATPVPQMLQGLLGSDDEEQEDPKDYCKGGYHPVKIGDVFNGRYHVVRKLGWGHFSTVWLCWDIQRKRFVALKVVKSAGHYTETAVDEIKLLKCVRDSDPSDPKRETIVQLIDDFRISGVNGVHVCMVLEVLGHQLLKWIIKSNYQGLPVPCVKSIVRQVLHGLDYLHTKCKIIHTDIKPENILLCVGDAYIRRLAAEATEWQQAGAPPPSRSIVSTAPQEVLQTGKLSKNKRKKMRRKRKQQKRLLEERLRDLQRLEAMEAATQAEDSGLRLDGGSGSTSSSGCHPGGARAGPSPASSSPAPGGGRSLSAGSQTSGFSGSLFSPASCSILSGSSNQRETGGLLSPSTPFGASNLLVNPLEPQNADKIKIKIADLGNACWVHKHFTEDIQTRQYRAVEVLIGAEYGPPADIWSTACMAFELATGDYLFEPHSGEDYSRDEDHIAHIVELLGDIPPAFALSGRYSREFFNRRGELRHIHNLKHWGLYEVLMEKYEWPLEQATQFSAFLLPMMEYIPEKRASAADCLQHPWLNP
The method in brief:
as §1

The target in a further assay is T5, MST1 (Homo sapiens, UniProt Q13043).
T5 construct: purchased Nanosyn (enzymatic panel); SGC in-house recombinant human kinases (DSF panel); Invitrogen (ALK1-6)
T5 sequence (Q13043 1-487): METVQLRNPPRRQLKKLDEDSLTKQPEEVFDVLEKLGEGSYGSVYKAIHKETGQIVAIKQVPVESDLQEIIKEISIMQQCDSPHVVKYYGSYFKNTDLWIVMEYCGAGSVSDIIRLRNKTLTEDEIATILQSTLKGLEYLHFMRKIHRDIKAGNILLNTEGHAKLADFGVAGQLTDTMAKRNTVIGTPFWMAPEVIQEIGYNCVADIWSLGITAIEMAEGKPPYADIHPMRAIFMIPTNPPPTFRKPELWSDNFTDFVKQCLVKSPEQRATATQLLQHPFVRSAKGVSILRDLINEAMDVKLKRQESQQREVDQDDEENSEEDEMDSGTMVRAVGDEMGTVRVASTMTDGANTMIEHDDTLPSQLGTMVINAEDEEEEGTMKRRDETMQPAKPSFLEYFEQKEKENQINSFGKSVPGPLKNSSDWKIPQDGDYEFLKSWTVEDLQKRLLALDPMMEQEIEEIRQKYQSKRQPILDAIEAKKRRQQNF
The method in brief: as §1

Another assay concerns the target T6, MST2 (Homo sapiens, UniProt Q13188).
T6 construct: purchased Nanosyn (enzymatic panel); SGC in-house recombinant human kinases (DSF panel); Invitrogen (ALK1-6)
T6 sequence (Q13188 1-491): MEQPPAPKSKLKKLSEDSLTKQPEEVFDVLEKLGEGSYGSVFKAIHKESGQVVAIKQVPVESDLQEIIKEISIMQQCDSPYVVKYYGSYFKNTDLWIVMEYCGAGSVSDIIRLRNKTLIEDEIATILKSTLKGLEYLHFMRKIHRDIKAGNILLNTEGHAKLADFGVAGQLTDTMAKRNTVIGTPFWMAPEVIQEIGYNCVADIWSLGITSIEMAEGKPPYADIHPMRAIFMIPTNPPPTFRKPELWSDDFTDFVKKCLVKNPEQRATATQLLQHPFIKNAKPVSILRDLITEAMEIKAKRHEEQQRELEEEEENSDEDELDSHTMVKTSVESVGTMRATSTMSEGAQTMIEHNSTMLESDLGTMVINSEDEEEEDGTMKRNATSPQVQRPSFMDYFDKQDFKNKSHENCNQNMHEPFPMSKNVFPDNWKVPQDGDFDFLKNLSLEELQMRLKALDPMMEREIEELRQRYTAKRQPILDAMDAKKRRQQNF
A digest of the protocol: as §1

In the next assay the target is T7, SGK2 (Homo sapiens, UniProt Q9HBY8).
T7 construct: purchased Nanosyn (enzymatic panel); SGC in-house recombinant human kinases (DSF panel); Invitrogen (ALK1-6)
T7 sequence (Q9HBY8 1-367): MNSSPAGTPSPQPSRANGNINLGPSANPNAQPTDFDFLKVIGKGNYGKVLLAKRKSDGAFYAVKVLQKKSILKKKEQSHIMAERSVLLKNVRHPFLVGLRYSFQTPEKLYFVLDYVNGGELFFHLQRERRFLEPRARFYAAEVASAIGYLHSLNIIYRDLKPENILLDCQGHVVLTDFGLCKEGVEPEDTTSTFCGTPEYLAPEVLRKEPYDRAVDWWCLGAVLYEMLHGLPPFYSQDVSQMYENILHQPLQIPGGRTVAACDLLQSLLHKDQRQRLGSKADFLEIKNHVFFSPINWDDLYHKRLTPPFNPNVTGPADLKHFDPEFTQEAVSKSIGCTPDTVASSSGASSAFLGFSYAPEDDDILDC
The method in brief: as §1

T2 sequence (P21802 22-821): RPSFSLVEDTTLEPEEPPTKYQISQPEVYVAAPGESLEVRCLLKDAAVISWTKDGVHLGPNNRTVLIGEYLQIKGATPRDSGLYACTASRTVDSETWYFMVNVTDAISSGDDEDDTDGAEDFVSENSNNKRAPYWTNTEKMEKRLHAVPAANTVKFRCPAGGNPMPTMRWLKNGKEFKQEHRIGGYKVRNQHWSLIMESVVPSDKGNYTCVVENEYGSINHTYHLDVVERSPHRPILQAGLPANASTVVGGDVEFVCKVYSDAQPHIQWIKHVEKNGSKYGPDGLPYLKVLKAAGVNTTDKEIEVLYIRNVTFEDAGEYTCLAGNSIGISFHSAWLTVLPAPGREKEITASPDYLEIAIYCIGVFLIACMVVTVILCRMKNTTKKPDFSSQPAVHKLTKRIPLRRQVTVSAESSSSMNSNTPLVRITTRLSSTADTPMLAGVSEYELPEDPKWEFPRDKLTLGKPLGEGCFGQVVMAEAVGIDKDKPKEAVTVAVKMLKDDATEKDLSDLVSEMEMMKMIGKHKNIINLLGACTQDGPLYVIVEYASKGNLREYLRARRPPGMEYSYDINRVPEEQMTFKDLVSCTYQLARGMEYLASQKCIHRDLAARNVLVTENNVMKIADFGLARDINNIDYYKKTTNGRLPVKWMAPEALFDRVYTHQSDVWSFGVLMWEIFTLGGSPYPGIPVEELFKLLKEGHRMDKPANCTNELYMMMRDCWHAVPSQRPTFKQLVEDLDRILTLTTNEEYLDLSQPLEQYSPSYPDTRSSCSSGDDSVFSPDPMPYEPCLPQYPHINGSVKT
T1 sequence (Q96GD4 whole entry): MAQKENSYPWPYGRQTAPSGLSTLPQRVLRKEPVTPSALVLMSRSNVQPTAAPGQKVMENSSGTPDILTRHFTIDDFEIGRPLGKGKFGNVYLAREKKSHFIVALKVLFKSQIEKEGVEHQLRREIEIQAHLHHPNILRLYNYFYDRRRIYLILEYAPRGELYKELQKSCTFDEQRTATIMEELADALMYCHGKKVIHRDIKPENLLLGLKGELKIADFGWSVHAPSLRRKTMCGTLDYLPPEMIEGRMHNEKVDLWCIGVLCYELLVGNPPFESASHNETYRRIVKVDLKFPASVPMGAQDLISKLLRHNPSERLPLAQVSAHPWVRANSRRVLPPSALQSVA

For `c1ccc2c(-c3cnn4cc(-c5ccc(N6CCNCC6)cc5)cnc34)ccnc2c1` [LDN-193189], the inhibition (usually the relative decrease from the control value, in per cent) at 0.1 µM was 2.3% at AURKB; 5% on FGFR2; 0% on JAK3; -3% at MSSK1; 4% at MST1; 5.1% at MST2. Also, the inhibition at 0.1 µM on SGK2 is 2.3%. Moreover, the inhibition at 1 µM at AURKB came out at 15%; at FGFR2, 18%; on JAK3, 0.1%; on MSSK1 it was 1.5%; at MST1, 7.9%; at MST2, 6%. At SGK2, the inhibition at 1 µM was 0.2%.

On to `COc1cc(-c2cc(-c3cccc(O)c3)cnc2N)cc(OC)c1OC` [K02288, 3-[6-amino-5-(3,4,5-trimethoxy-phenyl)-pyridin-3-yl]-phenol], for which the inhibition at 0.1 µM on AURKB was 0.3%; at FGFR2, 0.3%; at JAK3 it was 5.6%; at MSSK1, 1.8%; on MST1 it was -1%; on MST2, -2%. Further, the inhibition at 0.1 µM at SGK2 is 2.7%. Besides, the inhibition at 1 µM at AURKB was 1.5%; at FGFR2, 1.1%; at JAK3, 2.3%; at MSSK1 it was 0%; on MST1 it was 1.1%; at MST2 it was -1%. In addition, the inhibition at 1 µM at SGK2 amounted to 1.3%.
